In patent US20100183600A1, “RAF Inhibitors and Their Uses” (ARQULE, INC., priority 2008, published 2010):

Legend:
Assay in all cases: Cell growth inhibition assay (MTS)
Type in all cases: cell-based
SW620 = details: Homo sapiens, SW-620; SW620, colorectal adenocarcinoma
How it was run: (§1)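 Growth inhibition was measured as loss of dehydrogenase activity: cells grown in DMEM with 10% fetal bovine serum received compound for 72 hours before a 4 hr MTS/PMS step and reading at 492 nm.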

NCI-H526 = details: Homo sapiens; NCI-H526, lung carcinoma, variant small cell lung cancer
How it was run: as §1

SK-LMS-1 = details: Homo sapiens; SK-LMS-1, leiomyosarcoma
How it was run: as §1

KG-1a = details: Homo sapiens, AML
How it was run: as §1

LS174T = details: Homo sapiens, colorectal carcinoma
How it was run: as §1

NCI-H358 = details: Homo sapiens; NCI-H358, non-small cell lung cancer, brancioalveolar carcinoma
How it was run: as §1

HEC1A = details: Homo sapiens, HEC-1-A, endometrial
How it was run: as §1

HT29 = details: Homo sapiens, HT-29; HT29, colorectal carcinoma
How it was run: as §1

Kato111 = details: Homo sapiens; Kato111, gastric carcinoma
How it was run: as §1

PLC/PRF/5 = details: Homo sapiens; PLC/PRF/5, liver
How it was run: as §1

NTERA-2 c1. D1 = details: Homo sapiens, NTERA2; NTERA-2 c1. D1, testis pluripotent embryonal carcinoma
How it was run: as §1

SW480 = details: Homo sapiens; SW480, colon
How it was run: as §1

CAKI-2 = details: Homo sapiens; CAKI-2, kidney
How it was run: as §1

AN3CA = details: Homo sapiens, AN3-CA, endometrial
How it was run: as §1

KG-1 = details: Homo sapiens; KG-1, AML
How it was run: as §1

NCI-H520 = details: Homo sapiens; NCI-H520, squamous cell lung carcinoma
How it was run: as §1

NCI-H460 = details: Homo sapiens; NCI-H460, large cell lung carcinoma
How it was run: as §1

NCI-H1299 = details: Homo sapiens; NCI-H1299, non-small cell lung carcinoma
How it was run: as §1

WIDR = details: Homo sapiens, colorectal adenocarcinoma
How it was run: as §1

SNU-16 = details: Homo sapiens; SNU-16, gastric Carcinoma
How it was run: as §1

HEP-G2 = details: Homo sapiens, HepG2; HEP-G2, hepatocellular carcinoma
How it was run: as §1

HEP-3B = details: Homo sapiens, Hep3B, liver
How it was run: as §1

MCF-7 = details: Homo sapiens, MCF7; MCF-7, breast adenocarcinoma
How it was run: as §1

THP-1 = details: Homo sapiens; THP-1, acute monocytic leukemia
How it was run: as §1

SK-OV-3 = details: Homo sapiens; SK-OV-3, ovary
How it was run: as §1

CALU-6 = details: Homo sapiens; CALU-6, lung
How it was run: as §1

A427 = details: Homo sapiens, A-427; A427, lung Carcinoma
How it was run: as §1

SW780 = details: Homo sapiens; SW780, bladder
How it was run: as §1

CAKI-1 = details: Homo sapiens; CAKI-1, kidney
How it was run: as §1

SNU475 = details: Homo sapiens, SNU-475; SNU475, liver
How it was run: as §1

HCT-15 = details: Homo sapiens; HCT-15, colon
How it was run: as §1

DU145 = details: Homo sapiens, DU-145; DU145, prostate
How it was run: as §1

PANC-1 = details: Homo sapiens; PANC-1, pancreas epithelioid carcinoma
How it was run: as §1

COLO-205 = details: Homo sapiens; COLO-205, colon
How it was run: as §1

**Q.** What does the source list for `Cn1ccc(S(=O)(=O)N2CCC[C@@H](Nc3nccc(-c4c(-c5cccc(OCOP(=O)(O)O)c5)nc5occn45)n3)C2)n1` [Compound 19, (R)-(3-(5-(2-(1-(1-methyl-1H-pyrazol-3-ylsulfonyl)piperidin-3-ylamino)pyrimidin-4-yl)imidazo[2,1-b]oxazol-6-yl)phenoxy)methyl dihydrogen phosphate]?
**A.** GI50 (SW620): 22.8 µM; GI50 (NCI-H526): 58.9 µM; GI50 (SK-LMS-1): 15.2 µM; GI50 (KG-1a): 11.5 µM; GI50 (LS174T): 5.9 µM; GI50 (NCI-H358): 7.5 µM; GI50 (HEC1A): 2.72 µM; GI50 (HT29): 5.03 µM; GI50 (Kato111): 6.11 µM; GI50 (PLC/PRF/5): 13.6 µM; GI50 (NTERA-2 c1. D1): 5.32 µM; GI50 (SW480): 8.27 µM; GI50 (CAKI-2): 26.2 µM; GI50 (AN3CA): 20.1 µM; GI50 (KG-1): 30.8 µM; GI50 (NCI-H520): 20.2 µM; GI50 (NCI-H460): 19.3 µM; GI50 (NCI-H1299): 6.38 µM; GI50 (WIDR): 20.2 µM; GI50 (SNU-16): 15.7 µM; GI50 (HEP-G2): 1.38 µM; GI50 (HEP-3B): 3.16 µM; GI50 (MCF-7): 12.5 µM; GI50 (THP-1): 10.3 µM; GI50 (SK-OV-3): 13.7 µM; GI50 (CALU-6): 2.97 µM; GI50 (A427): 3.23 µM; GI50 (SW780): 9.1 µM; GI50 (CAKI-1): 30.3 µM; GI50 (SNU475): 29.1 µM; GI50 (HCT-15): 23.2 µM; GI50 (DU145): 9.62 µM; GI50 (PANC-1): 29.7 µM; GI50 (COLO-205): 0.25 µM
